Measured values as given in ChEMBL document CHEMBL1152887, “Identification of novel and potent 2-amino benzamide derivatives as allosteric glucokinase activators” (Bioorg Med Chem Lett, 2009).
pEC50: −log10 of the molar value.

Assays:
Hexokinase-4 [1] = molecular target: T1, Hexokinase-4 (Homo sapiens, UniProt P35557)
T1 sequence (P35557 whole entry): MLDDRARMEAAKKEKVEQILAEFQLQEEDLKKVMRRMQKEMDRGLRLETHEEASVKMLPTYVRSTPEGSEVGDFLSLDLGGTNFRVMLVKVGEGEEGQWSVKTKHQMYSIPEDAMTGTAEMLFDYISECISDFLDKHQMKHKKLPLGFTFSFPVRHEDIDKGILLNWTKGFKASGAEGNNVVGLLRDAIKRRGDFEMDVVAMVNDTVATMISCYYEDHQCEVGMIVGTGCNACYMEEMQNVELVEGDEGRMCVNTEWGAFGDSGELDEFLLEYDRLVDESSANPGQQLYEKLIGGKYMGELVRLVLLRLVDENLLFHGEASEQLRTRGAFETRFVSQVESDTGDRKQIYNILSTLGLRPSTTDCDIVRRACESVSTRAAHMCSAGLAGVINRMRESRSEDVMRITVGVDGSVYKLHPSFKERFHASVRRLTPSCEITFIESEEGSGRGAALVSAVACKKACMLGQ

Hexokinase-4 [2] = molecular target: T1, Hexokinase-4; remark: listed apart in the source
[3] = Cmax in Wistar rat at 1 mg/kg, iv and 3 mg/kg, po; type: ADME, organism-based; settings: in vivo
[4] = Half life in Wistar rat at 1 mg/kg, iv; type: ADME, organism-based; parameters: dose 1 mg/kg, route intravenous; settings: in vivo
[5] = Tmax in Wistar rat at 1 mg/kg, iv and 3 mg/kg, po; type: ADME, organism-based; settings: in vivo
[6] = Volume of distribution in Wistar rat at 1 mg/kg, iv and 3 mg/kg, po; type: ADME, organism-based; settings: in vivo
[7] = Clearance in Wistar rat at 1 mg/kg, iv and 3 mg/kg, po; type: ADME, organism-based; settings: in vivo
Rattus norvegicus = experiment: Glucose lowering effect in po dosed Wistar rat assessed as decrease in plasma glucose level administered 30 mins before glucose challenge by OGTT; type: functional, organism-based
[8] = Oral bioavailability in Wistar rat at 3 mg/kg; type: ADME, organism-based; settings: in vivo

Structure (SMILES) | pEC50 (Hexokinase-4 [1]) | pEC50 (Hexokinase-4 [2]) | other results
CCSc1ccc(N)c(C(=O)Nc2nc(C)cs2)c1 | 6.11 | 6.74 | –
COc1ccccc1Oc1ccc(N)c(C(=O)Nc2nc(C)cs2)c1 | 6.39 | 6.92 | –
Cc1csc(NC(=O)c2ccc(Cl)cc2N)n1 | < 4.52 | < 4.52 | –
Cn1cnnc1Sc1ccc(N)c(C(=O)Nc2nc(CO)cs2)c1 | 5.80 | 6.38 | –
Nc1ccc(Cl)cc1C(=O)Nc1nccs1 | 4.96 | 5.59 | –
Cn1cnnc1Sc1ccc(N)c(C(=O)Nc2ccccc2)c1 | < 5.00 | < 5.00 | –
Cn1cnnc1Sc1ccc(N)c(C(=O)Nc2ccncc2)c1 | < 5.00 | < 5.00 | –
Cn1cnnc1Sc1ccc(N)c(C(=O)Nc2cccnc2)c1 | < 5.00 | < 5.00 | –
Cc1csc(NC(=O)c2cc(Cl)ccc2N)n1 | 5.19 | 5.85 | –
Cc1csc(NC(=O)c2cc(Sc3ccccc3)ccc2N)n1 | 6.04 | 6.70 | –
Cn1cnnc1Sc1ccc(N)c(C(=O)Nc2ccccn2)c1 | 5.92 | 6.64 | –
Cn1cnnc1Sc1ccc(N)c(C(=O)Nc2ncns2)c1 | 6.31 | 6.92 | –
Cc1csc(NC(=O)c2cc(Sc3ccccn3)ccc2N)n1 | 5.92 | 6.66 | –
Cc1cnc(NC(=O)c2cc(Sc3nncn3C)ccc2N)s1 | 6.48 | 6.96 | –
Cc1csc(NC(=O)c2cc(Oc3ccccc3S(C)(=O)=O)ccc2N)n1 | 6.29 | 6.89 | –
Cc1csc(NC(=O)c2cc(Oc3cccc(F)c3)ccc2N)n1 | 6.22 | 6.85 | –

Structure (SMILES) | pEC50 (Hexokinase-4 [1]) | pEC50 (Hexokinase-4 [2]) | other results
Nc1ccccc1C(=O)Nc1nccs1 | < 4.52 | < 4.52 | –
Cc1csc(NC(=O)c2cc(Sc3nncn3C)ccc2N)n1 | – | – | Cmax [3]: 8.5 µM; half-life [4]: 54 min; Tmax [5]: 30 min; Vd [6]: 0.4 L/kg; clearance [7]: 14.3 mL/min/kg; Activity (Rattus norvegicus): Dose-dependent effect; bioavailability [8]: 100%
Cc1csc(NC(=O)c2cc(Oc3ccccc3)ccc2N)n1 | 6.15 | 6.89 | –
Cc1csc(NC(=O)c2cccc(Sc3nncn3C)c2)n1 | 5.14 | 5.82 | –
Cc1csc(NC(=O)c2cc(Sc3nccn3C)ccc2N)n1 | 6.64 | 7.00 | –
Cc1csc(NC(=O)c2cc(Sc3nnc[nH]3)ccc2N)n1 | 5.62 | 6.27 | –
CCOC(=O)c1csc(NC(=O)c2cc(Sc3nncn3C)ccc2N)n1 | 5.96 | 6.38 | –
Cc1csc(NC(=O)c2cc(Sc3ncc[nH]3)ccc2N)n1 | 5.80 | 6.42 | –
CCOc1ccc(N)c(C(=O)Nc2nc(C)cs2)c1 | 5.17 | 5.77 | –
Cc1csc(NC(=O)c2cccc(Cl)c2)n1 | 4.77 | 5.20 | –
Cn1cnnc1Sc1ccc(N)c(C(=O)Nc2nccs2)c1 | 6.46 | 6.89 | –
Cc1csc(NC(=O)c2cc(Oc3ccc(F)cc3)ccc2N)n1 | 5.77 | 6.40 | –
Cc1csc(NC(=O)c2cc(Sc3nncn3C)ccc2[N+](=O)[O-])n1 | < 5.00 | < 5.00 | –
Cn1cnnc1Sc1ccc(N)c(C(=O)Nc2nc(C(F)(F)F)cs2)c1 | 5.57 | 6.03 | –
Cc1csc(NC(=O)c2cc(Oc3ccccc3F)ccc2N)n1 | 6.59 | 7.00 | –
Cc1nsc(NC(=O)c2cc(Sc3nncn3C)ccc2N)n1 | 6.19 | 6.74 | –
